Data reported in the supplement of paper PMC13207355.

How the values were obtained:
Conditions in all cases: exposure time: 72 h
E13 [1] = patient-derived glioblastoma stem cells of classical subtype; assay: surviving fraction (nuclei count normalised to DMSO); higher = more cells surviving (less toxic)
E21 [2] = patient-derived glioblastoma stem cells of mesenchymal subtype; assay: as above
E28 [3] = patient-derived glioblastoma stem cells of classical subtype; assay: as above
E31 [4] = patient-derived glioblastoma stem cells of proneural subtype; assay: as above
E34 [5] = patient-derived glioblastoma stem cells of proneural subtype; assay: as above
E57 [6] = patient-derived glioblastoma stem cells of mesenchymal subtype; assay: as above
FT3469 [7] = normal neural stem cell line; assay: as above
E13 [8] = assay: phenotypic distance (Euclidean, principal components) from DMSO controls (arbitrary units); higher = stronger morphological change
E21 [9] = assay: as above
E28 [10] = assay: as above
E31 [11] = assay: as above
E34 [12] = assay: as above
E57 [13] = assay: as above
FT3469 [14] = assay: as above
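For phenotypic distance (Euclidean, principal components) from DMSO controls in this document: cell Painting imaging in 384-well plates, CellProfiler features reduced to at least 20 principal components, Euclidean distance versus same-plate DMSO vehicle wells (0.1% v/v), median over six images per well.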
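For surviving fraction (nuclei count normalised to DMSO) in this document: nuclei counted by high-content imaging of Hoechst-stained cells in laminin-coated 384-well plates, relative to 0.1% DMSO vehicle wells, with staurosporine as cell-death control.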

O=C(/C=C\n1cnc(-c2cc(C(F)(F)F)cc(C(F)(F)F)c2)n1)NNc1cnccn1 [Selinexor]
Conditions | phenotypic distance | surviving fraction
E13 [1], 4.1 nM | – | 0.654
E13 [1], 12.3 nM | – | 0.572
E13 [1], 37 nM | – | 0.418
E13 [1], 111.1 nM | – | 0.355
E13 [1], 333.3 nM | – | 0.384
E13 [1], 1000 nM | – | 0.31
E13 [1], 3000 nM | – | 0.242
E13 [8], 4.1 nM | 1.6 | –
E13 [8], 12.3 nM | 2.09 | –
E13 [8], 37 nM | 3.06 | –
E13 [8], 111.1 nM | 3.35 | –
E13 [8], 333.3 nM | 3.49 | –
E13 [8], 1000 nM | 3.23 | –
E13 [8], 3000 nM | 4.73 | –
E21 [2], 4.1 nM | – | 0.753
E21 [2], 12.3 nM | – | 0.729
E21 [2], 37 nM | – | 0.667
E21 [2], 111.1 nM | – | 0.572
E21 [2], 333.3 nM | – | 0.541
E21 [2], 1000 nM | – | 0.51
E21 [2], 3000 nM | – | 0.315
E21 [9], 4.1 nM | 2.91 | –
E21 [9], 12.3 nM | 3.17 | –
E21 [9], 37 nM | 3.01 | –
E21 [9], 111.1 nM | 3.44 | –
E21 [9], 333.3 nM | 3.53 | –
E21 [9], 1000 nM | 3.96 | –
E21 [9], 3000 nM | 4.26 | –
E28 [3], 4.1 nM | – | 0.643
E28 [3], 12.3 nM | – | 0.605
E28 [3], 37 nM | – | 0.441
E28 [3], 111.1 nM | – | 0.4
E28 [3], 333.3 nM | – | 0.327
E28 [3], 1000 nM | – | 0.373
E28 [3], 3000 nM | – | 0.246
E28 [10], 4.1 nM | 1.34 | –
E28 [10], 12.3 nM | 1.88 | –
E28 [10], 37 nM | 2.76 | –
E28 [10], 111.1 nM | 2.65 | –
E28 [10], 333.3 nM | 2.86 | –
E28 [10], 1000 nM | 2.69 | –
E28 [10], 3000 nM | 3.06 | –
E31 [4], 4.1 nM | – | 0.703
E31 [4], 12.3 nM | – | 0.51
E31 [4], 37 nM | – | 0.444
E31 [4], 111.1 nM | – | 0.38
E31 [4], 333.3 nM | – | 0.311
E31 [4], 1000 nM | – | 0.331
E31 [4], 3000 nM | – | 0.239
E31 [11], 4.1 nM | 2.16 | –
E31 [11], 12.3 nM | 2.72 | –
E31 [11], 37 nM | 2.72 | –
E31 [11], 111.1 nM | 3.08 | –
E31 [11], 333.3 nM | 2.98 | –
E31 [11], 1000 nM | 2.55 | –
E31 [11], 3000 nM | 3.17 | –
E34 [5], 4.1 nM | – | 0.782
E34 [5], 12.3 nM | – | 0.833
E34 [5], 37 nM | – | 0.867
E34 [5], 111.1 nM | – | 0.547
E34 [5], 333.3 nM | – | 0.582
E34 [5], 1000 nM | – | 0.569
E34 [5], 3000 nM | – | 0.582
E34 [12], 4.1 nM | 1.14 | –
E34 [12], 12.3 nM | 1.28 | –
E34 [12], 37 nM | 1.6 | –
E34 [12], 111.1 nM | 1.64 | –
E34 [12], 333.3 nM | 1.71 | –
E34 [12], 1000 nM | 1.72 | –
E34 [12], 3000 nM | 2.17 | –
E57 [6], 4.1 nM | – | 0.554
E57 [6], 12.3 nM | – | 0.554
E57 [6], 37 nM | – | 0.43
E57 [6], 111.1 nM | – | 0.286
E57 [6], 333.3 nM | – | 0.313
E57 [6], 1000 nM | – | 0.32
E57 [6], 3000 nM | – | 0.244
E57 [13], 4.1 nM | 2.64 | –
E57 [13], 12.3 nM | 2.17 | –
E57 [13], 37 nM | 2.78 | –
E57 [13], 111.1 nM | 3.97 | –
E57 [13], 333.3 nM | 4.39 | –
E57 [13], 1000 nM | 5.44 | –
E57 [13], 3000 nM | 6.2 | –
FT3469 [7], 4.1 nM | – | 0.614
FT3469 [7], 12.3 nM | – | 0.659
FT3469 [7], 37 nM | – | 0.616
FT3469 [7], 111.1 nM | – | 0.614
FT3469 [7], 333.3 nM | – | 0.692
FT3469 [7], 1000 nM | – | 0.556
FT3469 [7], 3000 nM | – | 0.612
FT3469 [14], 4.1 nM | 1.68 | –
FT3469 [14], 12.3 nM | 2.14 | –
FT3469 [14], 37 nM | 1.85 | –
FT3469 [14], 111.1 nM | 1.78 | –
FT3469 [14], 333.3 nM | 2.12 | –
FT3469 [14], 1000 nM | 1.48 | –
FT3469 [14], 3000 nM | 1.57 | –

C[C@H](Cc1cc2c(c(C(N)=O)c1)N(CCCO)CC2)NCCOc1ccccc1OCC(F)(F)F [Silodosin]
Conditions | phenotypic distance | surviving fraction
E13 [1], 4.1 nM | – | 0.879
E13 [1], 12.3 nM | – | 0.889
E13 [1], 37 nM | – | 0.914
E13 [1], 111.1 nM | – | 0.899
E13 [1], 333.3 nM | – | 0.859
E13 [1], 1000 nM | – | 0.9
E13 [1], 3000 nM | – | 0.93
E13 [8], 4.1 nM | 0.445 | –
E13 [8], 12.3 nM | 0.872 | –
E13 [8], 37 nM | 0.863 | –
E13 [8], 111.1 nM | 0.966 | –
E13 [8], 333.3 nM | 0.915 | –
E13 [8], 1000 nM | 0.684 | –
E13 [8], 3000 nM | 0.641 | –
E21 [2], 4.1 nM | – | 0.872
E21 [2], 12.3 nM | – | 0.94
E21 [2], 37 nM | – | 0.885
E21 [2], 111.1 nM | – | 0.958
E21 [2], 333.3 nM | – | 0.998
E21 [2], 1000 nM | – | 1.04
E21 [2], 3000 nM | – | 1.03
E21 [9], 4.1 nM | 2.39 | –
E21 [9], 12.3 nM | 1.7 | –
E21 [9], 37 nM | 1.04 | –
E21 [9], 111.1 nM | 0.791 | –
E21 [9], 333.3 nM | 0.998 | –
E21 [9], 1000 nM | 0.539 | –
E21 [9], 3000 nM | 1.04 | –
E28 [3], 4.1 nM | – | 0.896
E28 [3], 12.3 nM | – | 0.951
E28 [3], 37 nM | – | 0.935
E28 [3], 111.1 nM | – | 0.781
E28 [3], 333.3 nM | – | 0.941
E28 [3], 1000 nM | – | 0.892
E28 [3], 3000 nM | – | 0.877
E28 [10], 4.1 nM | 0.716 | –
E28 [10], 12.3 nM | 0.594 | –
E28 [10], 37 nM | 0.634 | –
E28 [10], 111.1 nM | 0.795 | –
E28 [10], 333.3 nM | 0.798 | –
E28 [10], 1000 nM | 0.495 | –
E28 [10], 3000 nM | 0.823 | –
E31 [4], 4.1 nM | – | 1.03
E31 [4], 12.3 nM | – | 0.873
E31 [4], 37 nM | – | 0.879
E31 [4], 111.1 nM | – | 0.922
E31 [4], 333.3 nM | – | 0.967
E31 [4], 1000 nM | – | 0.962
E31 [4], 3000 nM | – | 0.852
E31 [11], 4.1 nM | 0.63 | –
E31 [11], 12.3 nM | 0.581 | –
E31 [11], 37 nM | 1.01 | –
E31 [11], 111.1 nM | 0.959 | –
E31 [11], 333.3 nM | 0.426 | –
E31 [11], 1000 nM | 0.534 | –
E31 [11], 3000 nM | 1.14 | –
E34 [5], 4.1 nM | – | 0.923
E34 [5], 12.3 nM | – | 0.923
E34 [5], 37 nM | – | 0.82
E34 [5], 111.1 nM | – | 0.869
E34 [5], 333.3 nM | – | 0.932
E34 [5], 1000 nM | – | 0.863
E34 [5], 3000 nM | – | 0.802
E34 [12], 4.1 nM | 1.06 | –
E34 [12], 12.3 nM | 0.76 | –
E34 [12], 37 nM | 0.492 | –
E34 [12], 111.1 nM | 2.26 | –
E34 [12], 333.3 nM | 0.348 | –
E34 [12], 1000 nM | 1.18 | –
E34 [12], 3000 nM | 1.12 | –
E57 [6], 4.1 nM | – | 0.935
E57 [6], 12.3 nM | – | 0.844
E57 [6], 37 nM | – | 0.878
E57 [6], 111.1 nM | – | 0.843
E57 [6], 333.3 nM | – | 0.955
E57 [6], 1000 nM | – | 0.911
E57 [6], 3000 nM | – | 0.792
E57 [13], 4.1 nM | 0.807 | –
E57 [13], 12.3 nM | 1.04 | –
E57 [13], 37 nM | 0.711 | –
E57 [13], 111.1 nM | 1.62 | –
E57 [13], 333.3 nM | 0.512 | –
E57 [13], 1000 nM | 0.794 | –
E57 [13], 3000 nM | 1.7 | –
FT3469 [7], 4.1 nM | – | 0.874
FT3469 [7], 12.3 nM | – | 0.91
FT3469 [7], 37 nM | – | 1.05
FT3469 [7], 111.1 nM | – | 0.959
FT3469 [7], 333.3 nM | – | 0.939
FT3469 [7], 1000 nM | – | 0.815
FT3469 [7], 3000 nM | – | 0.925
FT3469 [14], 4.1 nM | 1.28 | –
FT3469 [14], 12.3 nM | 0.608 | –
FT3469 [14], 37 nM | 0.869 | –
FT3469 [14], 111.1 nM | 0.648 | –
FT3469 [14], 333.3 nM | 1.02 | –
FT3469 [14], 1000 nM | 0.845 | –
FT3469 [14], 3000 nM | 1.05 | –
